Reference: PMC4632126, “High specific selectivity and Membrane-Active Mechanism of the synthetic centrosymmetric α-helical peptides with Gly-Gly pairs” (Scientific Reports, 2015)
Where two headings read alike, the source gives them in different places. Where no end group is shown, it is not given here.

Columns and labels:
S. typhimurium ATCC14028 = format: cell-based, Salmonella typhimurium; settings: ATCC14028, 5 h
Protocol: (§1) Minimal bactericidal concentrations (MBCs) were measured using the method which has been adopted from National Committee for Clinical Laboratory Standards (NCCLS), with modifications. In short, 50 μL peptide solutions were pipetted into microtiter plates at various concentrations ranging from 1 to 128 μM. Freshly grown bacteria were added to the each well in a density of 0.5–1 × 10^6 CFUmL^−1. Microtiter plated was incubated at 37 °C for 5 h. Fifty microliters of each incubation mixture was further serially diluted (up to 10^−3 of the initial bacterial concentration), transferred on agar plates and incubated overnight. On the following day, the number of colonies was evaluated and the initial CFU/well retrospectively calculated. The minimum bactericidal concentrations (μM) were determined as the lowest concentration of the peptides that prevented more than 99.9% bacteria growth.

S. epidermidis ATCC12228 = format: cell-based, Staphylococcus epidermidis; settings: ATCC12228, 5 h
Protocol: In short, 50 μL peptide solutions were pipetted into microtiter plates at various concentrations ranging from 1 to 128 μM. Freshly grown bacteria were added to the each well in a density of 0.5–1 × 10^6 CFUmL^−1. Microtiter plated was incubated at 37 °C for 5 h. Fifty microliters of each incubation mixture was further serially diluted (up to 10^−3 of the initial bacterial concentration), transferred on agar plates and incubated overnight. On the following day, the number of colonies was evaluated and the initial CFU/well retrospectively calculated. The minimum bactericidal concentrations (μM) were determined as the lowest concentration of the peptides that prevented more than 99.9% bacteria growth. Each test was reproduced at least 3 times using 6 replicates.

[1] = test system: human red blood cells (hRBCs); settings: red cells of human, 1 h
Protocol: (§3) The hemolytic activity of each peptide was evaluated using a modified method, as described previously[21][22]. […] Then, the collected hRBCs were washed three times with PBS (pH 7.2), centrifuged at 1000 × g for 5 min, and resuspended in PBS (final concentration, approximately 1%). Next, 50 μL of the hRBC suspension was placed into a 96-well cell culture plate with 50 μL of test peptide solution in PBS at different concentrations, and the mixture was incubated at 37 °C for 1 h. After incubation, the plate was centrifuged at 1000 × g for 5 min, the supernatant was transferred to a new 96-well cell culture plate, and the release of hemoglobin was measured by monitoring optical density (OD) at 576 nm. Untreated hRBCs suspension was used as a negative control, and the hRBCs treated with 0.1% Triton X-100 were employed as positive controls. Each test was reproduced at least 3 times using 6 replicates. Percent hemolysis was calculated using the following equation:

S. aureus ATCC29213 = format: cell-based, Staphylococcus aureus; settings: ATCC 29213, 5 h
Protocol: as §1

E. coli UB1005 = format: cell-based, Escherichia coli; settings: UB1005, 5 h
Protocol: as §1

E. coli ATCC 25922 [2] = format: cell-based, Escherichia coli; settings: ATCC 25922, 5 h
Protocol: as §1

[3] = test system: 3 gram-positive strains tested; settings: MHC/GM for 3 gram-positive strains; >128 counted as 256 μM
Protocol: as §1, with “In” for “Minimal bactericidal concentrations (MBCs) were measured using the method which has been adopted from National Committee for Clinical Laboratory Standards (NCCLS), with modifications. In”
(§2) The therapeutic index (TI) is calculated by the ration of the minimum hemolytic concentration (MHC) to the geometric mean of the MBC (GM) to evaluate cell selectivity of peptides.

[4] = test system: all of the 6 strains tested; experiment: Geometric mean of MBCs and therapeutic index, all strains; format: cell-based; settings: MHC/GM for all 6 strains; >128 counted as 256 μM
Protocol: as §1, with “In” for “Minimal bactericidal concentrations (MBCs) were measured using the method which has been adopted from National Committee for Clinical Laboratory Standards (NCCLS), with modifications. In”
as §2

[5] = test system: 3 gram-negative strains tested; experiment: Geometric mean of MBCs and therapeutic index, gram-negative strains; format: cell-based; settings: MHC/GM for 3 gram-negative strains; >128 counted as 256 μM
Protocol: as §1, with “In” for “Minimal bactericidal concentrations (MBCs) were measured using the method which has been adopted from National Committee for Clinical Laboratory Standards (NCCLS), with modifications. In”
as §2

E. coli ATCC 25922 [6] = format: cell-based, Escherichia coli
Protocol: as §1, with “In short, 50 μL peptide solutions were pipetted into microtiter plates at various concentrations ranging from 1 to 128 μM.” left out, “growth. […] The salt sensitivity of the peptides was measured using a modified method, as described previously. […] The subsequent steps were consistent with the MBCs determination method.” for “growth.”

[7] = test system: human red blood cells (hRBCs); experiment: Hemolytic activity; settings: concentration causing 5% hemolysis of human red blood cells; about 1% hRBC in PBS, 37 °C, 1 h, OD 576 nm
Protocol: as §3

S. aureus ATCC 29213 = format: cell-based, Staphylococcus aureus; settings: ATCC 29213, 5 h
Protocol: as §1, with “In short, 50 μL peptide solutions were pipetted into microtiter plates at various concentrations ranging from 1 to 128 μM.” left out, “growth. […] The salt sensitivity of the peptides was measured using a modified method, as described previously. […] The subsequent steps were consistent with the MBCs determination method.” for “growth.”

[8] = test system: Methicillin-resistant S. aureus ATCC 43300; settings: S. aureus 43300 (methicillin-resistant); lowest concentration preventing more than 99.9% growth; 37 °C, 5 h; representative of three trials
Protocol: as §1, with “In” for “Minimal bactericidal concentrations (MBCs) were measured using the method which has been adopted from National Committee for Clinical Laboratory Standards (NCCLS), with modifications. In”

E. coli ATCC 25922 [9] = format: cell-based, Escherichia coli; settings: ATCC 25922, 24 h
Protocol: The checkerboard titration method is commonly used to evaluate the synergy of different antibacterial combinations. First, 2-fold serial dilutions of the antibiotics and antimicrobial peptides were prepared. Subsequently, 50 μL each of different concentrations of antibiotics and of antimicrobial peptides was mixed and added into 100 μL of bacterial solution (containing approximately 0.5–1 × 10^6 CFU mL^−1) in each well of a 96-well plate. The plates were then incubated at 37 °C for 24 h. The subsequent steps were consistent with the MBCs determination method. The fractional inhibitory concentration (FIC) index (FICI) was calculated as follows: An FICI < 0.5 is considered to indicate synergy; 0.5 < FICI < 1.0 is considered additive; 1.0 < FICI < 4.0 is considered indifferent; and an FICI > 4.0 is considered antagonism.

[10] = target: the molecule itself; experiment: FRET or BRET; FAM-labeled GG3 (donor) with TAMRA-labeled GG3 (acceptor) and unlabeled GG3, in POPG or POPC/POPG (3:1) vesicles; total peptide and FAM-peptide concentrations kept constant, mole fraction of TAMRA-peptide varied; 10 mM Tris, 150 mM NaCl, 0.1 mM EDTA, pH 7.4; excitation 492 nm; membrane-bound state

AKLWLKA-NH2 [AA1]
>128 µM: Minimum bactericidal concentration (S. typhimurium ATCC14028) | Minimum bactericidal concentration (S. epidermidis ATCC12228) | MHC (minimum hemolytic concentration) [1] | Minimum bactericidal concentration (S. aureus ATCC29213) | Minimum bactericidal concentration (E. coli UB1005) | Minimum bactericidal concentration (E. coli ATCC 25922 [2])

GKLWGLKGKLWGLKGKLWGLK-NH2 [GG3s1]
4 µM: Minimum bactericidal concentration (E. coli UB1005) | Minimum bactericidal concentration (E. coli ATCC 25922 [2])
16 µM: Minimum bactericidal concentration (S. typhimurium ATCC14028)
128 µM: Minimum bactericidal concentration (S. epidermidis ATCC12228) | Minimum bactericidal concentration (S. aureus ATCC29213)
8.98: TI (therapeutic index), all strains [4]
2: TI (therapeutic index), gram-positive [3]
>128 µM: MHC (minimum hemolytic concentration) [1]
40.31: TI (therapeutic index), gram-negative [5]

GKLWLKG-NH2 [GG1]
>128 µM: Minimum bactericidal concentration (S. typhimurium ATCC14028) | Minimum bactericidal concentration (S. epidermidis ATCC12228) | MBC with FeCl3 (E. coli ATCC 25922 [6]; E. coli ATCC 25922, 4 μM FeCl3) | MBC with NH4Cl (E. coli ATCC 25922 [6]; E. coli ATCC 25922, 6 μM NH4Cl) | MBC with ZnCl2 (E. coli ATCC 25922 [6]; E. coli ATCC 25922, 8 μM ZnCl2) | MBC with MgCl2 (E. coli ATCC 25922 [6]; E. coli ATCC 25922, 1 mM MgCl2) | MBC with CaCl2 (E. coli ATCC 25922 [6]; E. coli ATCC 25922, 2 mM CaCl2) | MBC with KCl (E. coli ATCC 25922 [6]; E. coli ATCC 25922, 4.5 mM KCl) | MBC with NaCl (E. coli ATCC 25922 [6]; E. coli ATCC 25922, 150 mM NaCl) | MBC, control (E. coli ATCC 25922 [6]; E. coli ATCC 25922, without physiological salts) | MHC (minimum hemolytic concentration) [1] | Minimum bactericidal concentration (S. aureus ATCC29213) | Minimum bactericidal concentration (E. coli UB1005) | Minimum bactericidal concentration (E. coli ATCC 25922 [2])

AKLWLKAAKLWLKAAKLWLKA-NH2 [AA3]
2.52: TI (therapeutic index), all strains [4]
4 µM: Minimum bactericidal concentration (S. typhimurium ATCC14028) | Minimum bactericidal concentration (S. epidermidis ATCC12228) | MBC with CaCl2 (S. aureus ATCC 29213) | MBC with FeCl3 (S. aureus ATCC 29213) | MBC with KCl (S. aureus ATCC 29213) | MBC with MgCl2 (S. aureus ATCC 29213) | MBC with NH4Cl (S. aureus ATCC 29213) | MBC with NaCl (S. aureus ATCC 29213) | MBC with ZnCl2 (S. aureus ATCC 29213) | MBC, control (S. aureus ATCC 29213) | Minimum bactericidal concentration [8] | Minimum bactericidal concentration (S. aureus ATCC29213)
3.17: TI (therapeutic index), gram-negative [5]
8 µM: MHC (minimum hemolytic concentration) [7]
1 µM: MBC with KCl (E. coli ATCC 25922 [6]; ATCC 25922, 5 h) | MBC with ZnCl2 (E. coli ATCC 25922 [6]; ATCC 25922, 5 h)
1: FIC index in combination with Ceftazidime (E. coli ATCC 25922 [9]) | FIC index in combination with Chloramphenicol (E. coli ATCC 25922 [9])
2 µM: MBC with CaCl2 (E. coli ATCC 25922 [6]; ATCC 25922, 5 h) | MBC with FeCl3 (E. coli ATCC 25922 [6]; ATCC 25922, 5 h) | MBC with MgCl2 (E. coli ATCC 25922 [6]; ATCC 25922, 5 h) | MBC with NH4Cl (E. coli ATCC 25922 [6]; ATCC 25922, 5 h) | MBC with NaCl (E. coli ATCC 25922 [6]; ATCC 25922, 5 h) | MBC, control (E. coli ATCC 25922 [6]; ATCC 25922, 5 h) | Minimum bactericidal concentration (E. coli UB1005) | Minimum bactericidal concentration (E. coli ATCC 25922 [2])
2: TI (therapeutic index), gram-positive [3] | FIC index in combination with Ciprofloxacin (E. coli ATCC 25922 [9])

B1: Gly-rich centrosymmetric peptide GG3 (peptide)
peptide: GKLWLKGGKLWLKGGKLWLKG-NH2
modifications: not fully specified
notes: designed peptide from the template (y+hhh+y)n, three repeats of GKLWLKG; In the FRET experiment, FAM-labeled, TAMRA-labeled and unlabeled GG3 were mixed on lipid vesicles; also called FAM-labeled GG3; TAMRA-labeled GG3; source: synthetic peptide (GL Biochem Corporation, Shanghai)
binds: binding result [10]
